According to patent publication US4016280A, “4,4-Diarylpiperidine compositions and use” (Byk Gulden Lomberg Chemische Fabrik GmbH, priority 1969, dated 1977):
“Also recorded” adds a separate entry of the source. Where two headings read alike, the source gives them in different places.

Key:
albino mouse [1] = assay: General behaviour of the albino mouse with different doses; format: in vivo; settings: albino mouse; for Locomotory activity / Restlessness Stereotype / Salivation / Vigilance: different doses per os, Examples 28, 29: 50 to 300 mg/kg
Procedure: Acute toxi- General behaviour of the albino
city in the mouse with different doses*
(§1) *drugs administered per os
(§2) **administered in doses from 50 to 300 mg/kg

albino mouse [2] = assay: Antagonism in the albino mouse of reserpine (preventive and curative ptosis/sedation); format: in vivo; settings: reserpine 2mg/kg sc., drug per os; for ED50: Mus musculus, po
Procedure: (§3) Antagonism in the albino mouse
(§4) Com- Preventive Curative catalepsy
(§5) of tion dation p.o.) i.p.)
as §1, §2

albino mouse [3] = assay: Antagonism in the albino mouse of perphenazine catalepsy; format: in vivo; settings: perphenazine 10 mg/kg p.o., drug per os, Examples 28, 29: 50 to 300 mg/kg; for ED50: Mus musculus, po
Procedure: as §3, §4, §5, §1, §2

albino mouse [4] = assay: Antagonism in the albino mouse of tremorine tremor; format: in vivo; settings: tremorine 15 mg/kg i.p., drug per os, Examples 28, 29: 50 to 300 mg/kg; for ED50: Mus musculus, po
Procedure: as §3, §5, §1, §2

[5] = Acute toxicity in the albino mouse; settings: in vivo
Procedure: (§6) As stated above, the compounds of formula I have advantageous central nervous system stimulating properties. Side-effects, as they are encountered on administration of amphetamine-type stimulants, are produced to a much lesser extent by the 4,4-diphenylpiperidine compounds, if at all. […] The tests were carried out according to known and accepted pharmacological standard test methods.
a Acute toxicity 150 mg./kg. 100 mg./kg.

albino mouse [6] = assay: Locomotory activity (restlessness in movements); format: in vivo; settings: albino mouse 5 mg/kg. perorally
Procedure: as §6

[7] = Potentiating effect on noradrenaline; settings: in vivo
Procedure: as §6

Exophthalmus = settings: in vivo
Procedure: as §6
f Exophthalmus Absent Present

[8] = Increase in blood pressure; format: in vivo; settings: rats and dogs
Procedure: as §6
pressure (rats and increase

albino mouse [9] = assay: Saliva secretion; format: in vivo
Procedure: as §6
No secretion Pronounced

Tachyphylaxis = settings: in vivo
Procedure: as §6
g Tachyphylaxis None Pronounced

[10] = Marshall, Brit. J. Pharmacol. 10, 270 (1955), technique of Schild, cited from earlier work
[11] = Randall and Lehmann, J. Pharmacol. Exp. Therap. 93, 314 (1948), cited from earlier work
[12] = read-out: Reserpine antagonism, Preventive Sedation ED50
[13] = read-out: Reserpine antagonism, Preventive ptosis ED50
[14] = Examples 28, 29: 50 to 300 mg/kg
[15] = mouse, iv, Table 2, i.v., read-out: Acute toxicity in the albino mouse LD50 i.v.
[16] = Examples 28, 29: 50 to 300 mg/kg, read-out: Reserpine antagonism, Curative Sedation ED50
[17] = Examples 28, 29: 50 to 300 mg/kg, read-out: Reserpine antagonism, Curative ptosis ED50
[18] = listed as 1 methyl-4,4-diphenylpiperidine
[19] = mouse, po, Table 2, p.o., read-out: Acute toxicity in the albino mouse LD50 p.o.

## OCCCN1CCC(c2ccccc2)(c2ccccc2)CC1 [Example 30, 1-(3-hydroxypropyl)-4,4-diphenylpiperidine]
Albino mouse [1]
  Locomotory activity (in words): only slightly increased
  Restlessness, stereotypia or salivation (in words): without causing restlessness, sterotypia or salivation
  Vigilance of the animal (in words): strong increase
  Locomotory activity: + (increase)
  Restlessness Stereotype: .phi. (no effect)
  Salivation: .phi. (no effect)
  Vigilance: ++
Albino mouse [2]; [12]
  ED50: 25 mg/kg
Albino mouse [2]; [13]
  ED50: 25 mg/kg
Albino mouse [2]; [14]
  Reserpine antagonism, Curative Sedation ED50: .phi. (no effect)
  Reserpine antagonism, Curative ptosis ED50: (+)
Albino mouse [3]
  ED50: 5 mg/kg
Albino mouse [4]
  ED50: 5 mg/kg
[5]; [15]
  LD50: 32 mg/kg

## c1ccc(CCN2CCC(c3ccccc3)(c3ccccc3)CC2)cc1 [Example 5, 1-Phenethyl-4,4-diphenylpiperidine]
Albino mouse [1]
  Locomotory activity: - (decrease)
  Restlessness Stereotype: .phi. (no effect)
  Salivation: .phi. (no effect)
  Vigilance: + (increase)
Albino mouse [1]; per os
  Remark under Locomotory activity (Ataxy): Ataxy
Albino mouse [2]; [12]
  ED50: 3 mg/kg
Albino mouse [2]; [13]
  ED50: 3 mg/kg
Albino mouse [2]; [14]
  Reserpine antagonism, Curative Sedation ED50: (+)
  Reserpine antagonism, Curative ptosis ED50: (+)
Albino mouse [4]
  Tremorine tremor antagonism ED50: .phi. (no effect)
[5]; [15]
  LD50: 19 mg/kg

## CC(=O)CCN1CCC(c2ccccc2)(c2ccccc2)CC1 [Example 32, 1-(2-Acetoethyl)-4,4-diphenylpiperidine]
Albino mouse [1]
  Locomotory activity (in words): only slightly increased
  Restlessness, stereotypia or salivation (in words): without causing restlessness, sterotypia or salivation
  Vigilance of the animal (in words): strong increase
  Locomotory activity: (+)
  Restlessness Stereotype: .phi. (no effect)
  Salivation: .phi. (no effect)
  Vigilance: ++
Albino mouse [2]
  Reserpine antagonism, Preventive Sedation ED50: 15 mg/kg
  Reserpine antagonism, Preventive ptosis ED50: 10 mg/kg
Albino mouse [2]; [14]
  Reserpine antagonism, Curative Sedation ED50: ~ 50 mg/kg
  Reserpine antagonism, Curative ptosis ED50: > 60 mg/kg
Albino mouse [3]
  Perphenazine catalepsy antagonism ED50: 45 mg/kg
Albino mouse [4]
  Tremorine tremor antagonism ED50: 15 mg/kg

## c1ccc(C2(c3ccccc3)CCNCC2)cc1 [Example 19, 4,4-Diphenylpiperidine]
Albino mouse [1]
  Locomotory activity (in words): only slightly increased
  Restlessness, stereotypia or salivation (in words): without causing restlessness, sterotypia or salivation
  Vigilance of the animal (in words): strong increase
  Locomotory activity: (+)
  Restlessness Stereotype: .phi. (no effect)
  Salivation: .phi. (no effect)
  Vigilance: ++
Albino mouse [2]; [16]
  ED50: 10 mg/kg
Albino mouse [2]; [17]
  ED50: > 50 mg/kg
Albino mouse [2]; [12]
  ED50: 5 mg/kg
Albino mouse [2]; [13]
  ED50: 10 mg/kg
Albino mouse [3]
  ED50: 20 mg/kg
Albino mouse [4]
  ED50: 2 mg/kg
[5]; [15]
  LD50: 25 mg/kg

## CC(N)Cc1ccccc1 (stereo not drawn) [Amphetamine, reference compound]
Albino mouse [6]
  Locomotory activity (restlessness in movements), increase by: 100%
[7]
  Potentiating effect on noradrenaline: Present
Exophthalmus
  Exophthalmus: Present
[8]
  Increase in blood pressure: Pronounced
Albino mouse [9]
  Saliva secretion: Pronounced
Tachyphylaxis
  Tachyphylaxis: Pronounced
[5]; po, Table 1, albino mouse perorally, read-out: Acute toxicity
  LD50: 100 mg/kg

## CCC(C)N1CCC(c2ccccc2)(c2ccccc2)CC1 (stereo not drawn) [Example 26, 1-(secondary Butyl)-4,4-diphenylpiperidine]
Albino mouse [1]
  Locomotory activity (in words): only slightly increased
  Restlessness, stereotypia or salivation (in words): without causing restlessness, sterotypia or salivation
  Vigilance of the animal (in words): strong increase
  Locomotory activity: (+)
  Restlessness Stereotype: .phi. (no effect)
  Salivation: .phi. (no effect)
  Vigilance: ++
Albino mouse [2]; [16]
  ED50: 10 mg/kg
Albino mouse [2]; [12]
  ED50: 10 mg/kg
Albino mouse [2]; [13]
  ED50: 25 mg/kg
Albino mouse [2]; [14]
  Reserpine antagonism, Curative ptosis ED50: (+)
Albino mouse [3]
  ED50: 7 mg/kg
[10]
  Antihistaminic activity: devoid of any therapeutically-utilizable antihistaminic activity; also recorded: devoid of any therapeutically utilizable antihistaminic activity
Albino mouse [4]
  ED50: 5 mg/kg
[5]; [15]
  LD50: 19 mg/kg

## CC(=O)CN1CCC(c2ccccc2)(c2ccccc2)CC1 [Example 17, 1-Acetonyl-4,4-diphenylpiperidine]
Albino mouse [1]
  Locomotory activity (in words): only slightly increased
  Restlessness, stereotypia or salivation (in words): without causing restlessness, sterotypia or salivation
  Vigilance of the animal (in words): strong increase
  Locomotory activity: (+)
  Restlessness Stereotype: .phi. (no effect)
  Salivation: .phi. (no effect)
  Vigilance: ++
Albino mouse [2]; [16]
  ED50: ~25 mg/kg
Albino mouse [2]; [17]
  ED50: > 25 mg/kg
Albino mouse [2]; [12]
  ED50: 15 mg/kg
Albino mouse [2]; [13]
  ED50: 12 mg/kg
Albino mouse [3]
  ED50: > 25 mg/kg
Albino mouse [4]
  ED50: 17 mg/kg
[5]; [15]
  LD50: 34 mg/kg

## COCCCN1CCC(c2ccccc2)(c2ccccc2)CC1 [Example 7, 1-(3-Methoxypropyl)-4,4-diphenylpiperidine]
Albino mouse [1]
  Locomotory activity (in words): only slightly increased
  Restlessness, stereotypia or salivation (in words): without causing restlessness, sterotypia or salivation
  Vigilance of the animal (in words): strong increase
  Locomotory activity: (+)
  Restlessness Stereotype: .phi. (no effect)
  Salivation: .phi. (no effect)
  Vigilance: ++
Albino mouse [4]
  ED50: 3 mg/kg
[5]; [15]
  LD50: 30 mg/kg

## CN1CCC(c2ccccc2)(c2ccccc2)CC1 [Example 1, 1-Methyl-4,4-diphenylpiperidine]
[11]; listed as 1-methyl-4,4-diphenylpiperidine
  Analgesic activity: devoid of analgesic activity
[11]; [18]
  Analgesic activity: devoid of analgesic action
Albino mouse [1]
  Locomotory activity (in words): only slightly increased
  Restlessness, stereotypia or salivation (in words): without causing restlessness, sterotypia or salivation
  Vigilance of the animal (in words): strong increase
  Locomotory activity: (+)
  Restlessness Stereotype: .phi. (no effect)
  Salivation: .phi. (no effect)
  Vigilance: ++
Albino mouse [2]; [16]
  ED50: 10 mg/kg
Albino mouse [2]; [17]
  ED50: > 50 mg/kg
Albino mouse [2]; [12]
  ED50: 3 mg/kg
Albino mouse [2]; [13]
  ED50: 4 mg/kg
Albino mouse [3]
  ED50: 3 mg/kg
[10]; listed as 1-Methyl-4,4-diphenylpiperidine
  Antihistaminic activity: devoid of any therapeutically utilizable antihistaminic activity
[10]; [18]
  Antihistaminic activity: devoid of any therapeutically-utilizable antihistaminic activity
Albino mouse [4]
  ED50: 1 mg/kg
[5]; [15]
  LD50: 45 mg/kg
[5]; [19]
  LD50: 140 mg/kg

## OCCN1CCC(c2ccccc2)(c2ccccc2)CC1 [Example 9, 1-(2-Hydroxyethyl)-4,4-diphenylpiperidine]
Albino mouse [1]
  Locomotory activity (in words): only slightly increased
  Restlessness, stereotypia or salivation (in words): without causing restlessness, sterotypia or salivation
  Vigilance of the animal (in words): strong increase
  Locomotory activity: (+)
  Restlessness Stereotype: .phi. (no effect)
  Salivation: .phi. (no effect)
  Vigilance: ++
Albino mouse [2]; [16]
  ED50: 15 mg/kg
Albino mouse [2]; [12]
  ED50: 8 mg/kg
Albino mouse [2]; [13]
  ED50: 10 mg/kg
Albino mouse [2]; [14]
  Reserpine antagonism, Curative ptosis ED50: (+)
Albino mouse [3]
  ED50: 15 mg/kg
Albino mouse [4]
  ED50: 10 mg/kg
[5]; [15]
  LD50: 33 mg/kg

## c1ccc(CN2CCC(c3ccccc3)(c3ccccc3)CC2)cc1 [Example 10, 1-Benzyl-4,4-diphenylpiperidine]
Albino mouse [1]
  Locomotory activity (in words): only slightly increased
  Restlessness, stereotypia or salivation (in words): without causing restlessness, sterotypia or salivation
  Vigilance of the animal (in words): strong increase
  Vigilance: ++
[5]; [15]
  LD50: 20 mg/kg

## CCN1CCC(c2ccccc2)(c2ccccc2)CC1 [Example 3, 1-Ethyl-4,4-diphenylpiperidine]
Albino mouse [1]
  Locomotory activity: (+)
  Restlessness Stereotype: .phi. (no effect)
  Salivation: .phi. (no effect)
  Vigilance: ++
Albino mouse [2]; [16]
  ED50: 50 mg/kg
Albino mouse [2]; [17]
  ED50: > 50 mg/kg
Albino mouse [2]; [12]
  ED50: 5 mg/kg
Albino mouse [2]; [13]
  ED50: 5 mg/kg
Albino mouse [3]
  ED50: 2 mg/kg
Albino mouse [4]
  ED50: 1 mg/kg
[5]; [15]
  LD50: 45 mg/kg
[5]; [19]
  LD50: 150 mg/kg
